Laboratory results published in patent US20240108685A1, “ORAL LIPOSOMAL COMPOSITIONS” (priority 2021, published 2024).

Test system: 4T-1 cells of mammary cancer
Assay: Orthotopic 4T1 breast cancer model, lung metastases
Assay type: in vivo, BALB/c mice
Details: after 3 weeks
Source text: The objective of this study was to evaluate the capacity of a suspension of liposomal MTP-PE, prepared according to the invention and administered orally, to inhibit the development of pulmonary metastases from cancer of the mammary gland.
The experimental model consisted of using immunocompetent mice of the BALB/c strain and performing an orthotopic transplant of 4T-1 cells of mammary cancer of murine origin.
This orthotopic graft forms a tumor reproducing human breast cancer which disseminates and forms metastases in the lungs after 3 weeks.
Suspensions of liposomes were prepared according to the method indicated in example 1.
4T1 tumors were induced on day zero (DO) orthotopically in 60 BALB/c female mice under anesthesia.
A total of 300,000 4T1 tumor cells were slowly injected into the right thoracic breast tissue.
Animals were randomized by tumor size on Day 9 into six groups of ten animals each […]. Homogeneity of tumor sizes between groups was tested by analysis of variance (ANOVA).
The animals of Groups 1, 2 and 3 were treated respectively with Batch H3 (control), Batch G3 and Batch G3 twice a week orally.
Additionally, animals in Groups 2 and 4 were treated with intravenous injections of doxorubicin at 8 mg/kg once weekly for 3 weeks. […] The number of lung metastases was counted using a binocular loupe.

COc1cccc2c1C(=O)c1c(O)c3c(c(O)c1C2=O)C[C@@](O)(C(=O)CO)C[C@@H]3O[C@H]1C[C@H](N)[C@H](O)[C@H](C)O1 [doxorubicin]
Effect on lung metastases (in words): did not show significant efficacy
